These results are taken from patent publication US20090221624A1, “4-AMINOQUINOLINE COMPOUNDS FOR TREATING VIRUS-RELATED CONDITIONS” (priority 2005, published 2009).

One data set concerns RSV minigenome. Kind of data set: RSV minigenome-dependent β-galactosidase expression assay (RSV β-Gal). In kind it is cell-based, respiratory syncytial virus. The following applies: for EC50: Secondary Data, RSV, read-out: RSV EC50; for RSV TI: therapeutic index CC50/EC50, RSV; for inhibition at 25 µM: primary screening, 25 μM final concentration, 24 hours, percent inhibition of viral replication, read-out: RSV Inh.

The test system of another data set is WNV (WN-hRuPac cells). Kind of data set: WNV antiviral activity, WN-hRuPac cells, Renilla luciferase. The following applies: for EC50 / inhibition at 25 µM: West Nile virus; for EC50: Secondary Data, WNV, read-out: WNV EC50; for WNV TI: therapeutic index CC50/EC50, WNV; for inhibition at 25 µM: primary screening, 25 μM final concentration, 24 hours, percent inhibition of viral replication, read-out: WNV Inh. In kind it is cell-based, West Nile virus.

A further data set deals with YFV (YF-hRuPac cells). Description: microbe, parasite or virus in culture. Format: cell-based, yellow fever virus. Particulars: for EC50 / inhibition at 25 µM: Yellow fever virus; for EC50: read-out: YFV EC50; for inhibition at 25 µM: 24 h, read-out: YFV Inh.
The test system of the next data set is DNG (D2-hRuPac cells). Kind of data set: DNG antiviral activity, D2-hRuPac cells, Renilla luciferase. Format: cell-based, Dengue fever virus. The following applies: Dengue virus, secondary screening.
A further data set concerns EBOV minigenome. Description: microbe, parasite or virus in culture. Format: cell-based, Ebola virus. The following applies: for EC50: read-out: EBOV EC50; for inhibition at 25 µM: 24 h, read-out: EBOV Inh.
A further data set deals with SINV (SR19-F-luc cells). Description: SINV antiviral activity, SR19-F-luc cells, Firefly luciferase. Format: cell-based. Particulars: Sindbis virus; for EC50: secondary screening, SR19-F-luc cells; for inhibition at 25 µM: primary screening, 25 μM final concentration, 24 hours, percent inhibition of viral replication, read-out: SINV Inh.
Data set [1] concerns viable cells (intracellular ATP).
Data set [2] relates to HCV replicon (Clone A cells, Huh7, subgenomic hepatits C virus RNA). Description: HCV Neo screening assay (HCV replicon, NPTII ELISA). Particulars: for EC50 / inhibition at 25 µM: Hepatitis C virus, Huh-7; for EC50: Secondary Data, HCV; for inhibition at 25 µM: primary screening, 25 μM final concentration, 24 hours, percent inhibition of viral replication, read-out: HCV Inh; for HCV TI: therapeutic index CC50/EC50, HCV. Format: cell-based, hepatitis C virus.

The mark [3] stands for this setting: human respiratory syncytial virus.

Like-named read-outs stand apart in the source and are kept apart here. Where only a bound is given, the exact number is not on record here.

One may read the EC50 as the concentration at which the effect is half-maximal. With `COc1ccccc1Nc1cc(C)nc2c(C)c(C)cc(N)c12` [Compound 79], the EC50 amounted to 2.2 µM in the data set with RSV minigenome; 19 µM in the data set with WNV (WN-hRuPac cells); 3.1 µM in the data set on YFV (YF-hRuPac cells); 8.26 µM with DNG (D2-hRuPac cells); 43.5 µM in the data set with EBOV minigenome; 8.57 µM in the data set on SINV (SR19-F-luc cells). The “RSV TI” value in the data set with RSV minigenome was found to be 23.3. The “WNV TI” value in the data set with WNV (WN-hRuPac cells) amounted to 2.7. Also, in the data set with YFV (YF-hRuPac cells), the “YFV TI” value was determined as 16.53. The “EBOV Inh” value with EBOV minigenome turned out to be 49.83%. Also, the CC50 in [1] is 51.2 µM; in “in vitro” (HCV CC50), at least 75 µM.

With `Cc1cc(C)c2nc(C)cc(Nc3ccc(O)cc3)c2c1` [Compound 49], the EC50 in data set [2] was determined as 11.1 µM; in the data set with RSV minigenome (setting [3]) it was 4.39 µM; in the data set with WNV (WN-hRuPac cells), 5.58 µM; in the data set with YFV (YF-hRuPac cells), 11 µM; with DNG (D2-hRuPac cells) it was 13.2 µM; with EBOV minigenome (Zaire ebolavirus) it was 6.88 µM. For the same compound, the EC50 in the data set with SINV (SR19-F-luc cells) was at least 75 µM. Moreover, the inhibition at 25 µM came out at 113% in data set [2]; 90.2% with RSV minigenome (setting [3]); 66.4% in the data set with WNV (WN-hRuPac cells); 66.5% in the data set with YFV (YF-hRuPac cells); 69.9% in the data set on EBOV minigenome (Zaire ebolavirus); 72.5% with SINV (SR19-F-luc cells). In addition, the “HCV TI” value in [2] was determined as 1.47. Further, the “RSV TI” value in the data set with RSV minigenome came to 8.94. In addition, in the data set on WNV (WN-hRuPac cells), the “WNV TI” value came out at 7.04. Besides, the “YFV TI” value with YFV (YF-hRuPac cells) is recorded as 3.57. In addition, the CC50 in the data set “in vitro” (DNG CC50) amounted to 39.3 µM; in the data set “in vitro” (EBOV CC50), 39.3 µM; in the data set “in vitro” (HCV CC50) it was 16.3 µM; in “in vitro” (RSV CC50), 39.3 µM; in the data set “in vitro” (SINV CC50), 39.3 µM; in “in vitro” (WNV CC50), 39.3 µM. Besides, the CC50 in “in vitro” (YFV CC50) came to 39.3 µM.

As for `CCOC(=O)c1cnc2c(C)cc(C)cc2c1NCCCN(C)C` [Compound 75], the EC50 came out at 0.75 µM in data set [2]; 5.79 µM with RSV minigenome (setting [3]); 9 µM in the data set on WNV (WN-hRuPac cells); 7.48 µM in the data set on YFV (YF-hRuPac cells); 6.09 µM in the data set with DNG (D2-hRuPac cells); 7.15 µM in the data set on EBOV minigenome (Zaire ebolavirus). The compound further yielded an EC50 in the data set with SINV (SR19-F-luc cells) of 11 µM. Moreover, the inhibition at 25 µM in data set [2] was 122%; with RSV minigenome (setting [3]) it was 92.7%; in the data set on WNV (WN-hRuPac cells), 79.2%; with YFV (YF-hRuPac cells), 69.1%; in the data set on EBOV minigenome (Zaire ebolavirus), 95.1%; in the data set on SINV (SR19-F-luc cells), 83.8%. Further, the “HCV TI” value in [2] is on record as 14.4. The “RSV TI” value with RSV minigenome stood at 4.04. In addition, the “WNV TI” value in the data set with WNV (WN-hRuPac cells) was found to be 2.6. In addition, in the data set on YFV (YF-hRuPac cells), the “YFV TI” value was 3.13. Besides, the CC50 in the data set “in vitro” (DNG CC50) was determined as 23.4 µM; in the data set “in vitro” (EBOV CC50), 23.4 µM; in “in vitro” (HCV CC50), 10.8 µM; in the data set “in vitro” (RSV CC50) it was 23.4 µM; in the data set “in vitro” (SINV CC50), 23.4 µM; in “in vitro” (WNV CC50), 23.4 µM. This compound gave a CC50 in the data set “in vitro” (YFV CC50) of 23.4 µM.

For the compound `Cc1ccc2nc3c(c(Nc4ccc(O)cc4)c2c1)CCC3` [Compound 16], the EC50 amounted to 9 µM in data set [2]; 7.1 µM in the data set on RSV minigenome (setting [3]); 13.1 µM in the data set on WNV (WN-hRuPac cells); 21 µM with YFV (YF-hRuPac cells); 9.44 µM with DNG (D2-hRuPac cells); 29.9 µM with EBOV minigenome (Zaire ebolavirus). The compound further gave an EC50 with SINV (SR19-F-luc cells) of 1.52 µM. The inhibition at 25 µM in [2] was determined as 119%; in the data set on RSV minigenome (setting [3]), 88.5%; in the data set with WNV (WN-hRuPac cells), 66.8%; in the data set on YFV (YF-hRuPac cells), 75.9%; with EBOV minigenome (Zaire ebolavirus), 7.83%; in the data set on SINV (SR19-F-luc cells) it was 79.5%. In addition, in [2], the “HCV TI” value came to 3.72. In addition, in the data set on RSV minigenome, the “RSV TI” value was 4.81. In addition, the “WNV TI” value in the data set on WNV (WN-hRuPac cells) is reported as 2.61. Also, the “YFV TI” value in the data set on YFV (YF-hRuPac cells) was found to be 1.63. The CC50 came out at 34.1 µM in “in vitro” (DNG CC50); 34.1 µM in “in vitro” (EBOV CC50); 33.5 µM in the data set “in vitro” (HCV CC50); 34.1 µM in the data set “in vitro” (RSV CC50); 34.1 µM in “in vitro” (SINV CC50); 34.1 µM in “in vitro” (WNV CC50). The same compound showed a CC50 in “in vitro” (YFV CC50) of 34.1 µM.

For `CC(=O)c1cccc(Nc2cc(C)nc3c(C)cc(C)cc23)c1` [Compound 48], the concentration giving a half-maximal response (EC50) amounted to 10 µM in data set [2]; 8.32 µM in the data set on RSV minigenome (setting [3]); 21.3 µM in the data set with WNV (WN-hRuPac cells); 15.9 µM in the data set with YFV (YF-hRuPac cells); 10.5 µM in the data set on DNG (D2-hRuPac cells); 26.4 µM with EBOV minigenome (Zaire ebolavirus). The same compound returned an EC50 with SINV (SR19-F-luc cells) of 2.47 µM. Besides, the inhibition at 25 µM in [2] turned out to be 151%; in the data set on RSV minigenome (setting [3]), 78%; in the data set on WNV (WN-hRuPac cells), 58.5%; with YFV (YF-hRuPac cells) it was 62.1%; in the data set on EBOV minigenome (Zaire ebolavirus) it was 29.4%; in the data set with SINV (SR19-F-luc cells), 70.3%. The “HCV TI” value in [2] was 1.41. In addition, the “RSV TI” value in the data set with RSV minigenome is recorded as 3.08. Further, in the data set on WNV (WN-hRuPac cells), the “WNV TI” value was determined as 1.2. Moreover, in the data set with YFV (YF-hRuPac cells), the “YFV TI” value was 1.61. Moreover, the CC50 in the data set “in vitro” (DNG CC50) was determined as 25.6 µM; in “in vitro” (EBOV CC50), 25.6 µM; in “in vitro” (HCV CC50), 14.1 µM; in the data set “in vitro” (RSV CC50) it was 25.6 µM; in “in vitro” (SINV CC50), 25.6 µM; in “in vitro” (WNV CC50), 25.6 µM. This compound had a CC50 in “in vitro” (YFV CC50) of 25.6 µM.
